From patent US10512634B2, “Benzimidazole derivates useful as inhibitors of mammalian histone deacetylase activity” (KANCERA AB, priority 2015, dated 2019)
Read-outs that look alike come from different tables or passages of the source.

Tests used:
[1] = biological target: HDAC6 (Homo sapiens (Human), UniProt Q9UBN7); assay: HDAC in vitro enzymatic assay (fluorescence); type: biochemical
Experimental: Biological Tests Method for Measurement of Enzymatic Activity of HDACs Materials & Methods
All Examples were tested in HDAC1, 2, 3, 6 and 8 in vitro enzymatic assays. The assay principle is well known (Hauser et al. 2009, Bradner et al. 2010) and all necessary reagents like enzymes, substrates, developer and reference compounds are commercially available (see e.g. BPS Biosciences http://www.bpsbioscience.com/). A series of dilutions of the compounds were prepared with a top concentration of 200 μM (2 μM for HDAC6). The enzymatic reactions were conducted in a mixture containing assay buffer, bovine serum albumin, HDAC substrate, and a test compound. After enzymatic reaction, developer was added and after an additional incubation time, fluorescence intensity was measured at an excitation wavelength of 360 nm and an emission wavelength of 460 nm. A selection of the Examples were tested in a full HDAC panel containing HDAC1, 2, 3, 4, 5, 6, 7, 8, 9, 10 and 11 in vitro enzymatic assays. The tests were performed as above except that a series of dilutions of the compounds were prepared with a top concentration of 10 μM for all HDACs.

[2] = biological target: HDAC1 (Homo sapiens (Human), UniProt Q13547); assay: HDAC in vitro enzymatic assay (fluorescence); settings: read-out: IC50 HDAC 1; full HDAC panel; top concentration 10 μM
[3] = biological target: HDAC2 (Homo sapiens (Human), UniProt Q92769); assay: HDAC in vitro enzymatic assay (fluorescence); settings: read-out: IC50 HDAC2; full HDAC panel; top concentration 10 μM
Chain of HDAC2 (Q92769 whole entry): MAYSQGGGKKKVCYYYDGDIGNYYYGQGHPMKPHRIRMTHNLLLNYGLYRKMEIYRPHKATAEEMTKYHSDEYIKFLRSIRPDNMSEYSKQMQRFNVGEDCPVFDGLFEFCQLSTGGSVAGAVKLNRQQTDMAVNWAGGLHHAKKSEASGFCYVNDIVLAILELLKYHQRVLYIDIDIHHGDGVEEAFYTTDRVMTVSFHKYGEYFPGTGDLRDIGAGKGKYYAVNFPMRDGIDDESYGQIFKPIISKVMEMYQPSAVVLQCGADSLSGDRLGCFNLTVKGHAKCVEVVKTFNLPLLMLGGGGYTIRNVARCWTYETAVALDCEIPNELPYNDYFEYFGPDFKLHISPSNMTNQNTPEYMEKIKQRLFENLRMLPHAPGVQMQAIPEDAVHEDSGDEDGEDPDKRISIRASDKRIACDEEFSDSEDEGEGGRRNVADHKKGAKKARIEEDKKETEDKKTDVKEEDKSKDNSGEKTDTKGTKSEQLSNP

[4] = biological target: HDAC3 (Homo sapiens (Human), UniProt O15379); assay: HDAC in vitro enzymatic assay (fluorescence); settings: read-out: IC50 HDAC3; full HDAC panel; top concentration 10 μM
[5] = biological target: HDAC8 (Homo sapiens (Human), UniProt Q9BY41); assay: HDAC in vitro enzymatic assay (fluorescence); settings: read-out: IC50 HDAC8; full HDAC panel; top concentration 10 μM
[6] = biological target: HDAC4 (Homo sapiens (Human), UniProt P56524); assay: HDAC in vitro enzymatic assay (full HDAC panel); settings: read-out: IC50 HDAC4, top concentration 10 μM
Chain of HDAC4 (P56524 whole entry): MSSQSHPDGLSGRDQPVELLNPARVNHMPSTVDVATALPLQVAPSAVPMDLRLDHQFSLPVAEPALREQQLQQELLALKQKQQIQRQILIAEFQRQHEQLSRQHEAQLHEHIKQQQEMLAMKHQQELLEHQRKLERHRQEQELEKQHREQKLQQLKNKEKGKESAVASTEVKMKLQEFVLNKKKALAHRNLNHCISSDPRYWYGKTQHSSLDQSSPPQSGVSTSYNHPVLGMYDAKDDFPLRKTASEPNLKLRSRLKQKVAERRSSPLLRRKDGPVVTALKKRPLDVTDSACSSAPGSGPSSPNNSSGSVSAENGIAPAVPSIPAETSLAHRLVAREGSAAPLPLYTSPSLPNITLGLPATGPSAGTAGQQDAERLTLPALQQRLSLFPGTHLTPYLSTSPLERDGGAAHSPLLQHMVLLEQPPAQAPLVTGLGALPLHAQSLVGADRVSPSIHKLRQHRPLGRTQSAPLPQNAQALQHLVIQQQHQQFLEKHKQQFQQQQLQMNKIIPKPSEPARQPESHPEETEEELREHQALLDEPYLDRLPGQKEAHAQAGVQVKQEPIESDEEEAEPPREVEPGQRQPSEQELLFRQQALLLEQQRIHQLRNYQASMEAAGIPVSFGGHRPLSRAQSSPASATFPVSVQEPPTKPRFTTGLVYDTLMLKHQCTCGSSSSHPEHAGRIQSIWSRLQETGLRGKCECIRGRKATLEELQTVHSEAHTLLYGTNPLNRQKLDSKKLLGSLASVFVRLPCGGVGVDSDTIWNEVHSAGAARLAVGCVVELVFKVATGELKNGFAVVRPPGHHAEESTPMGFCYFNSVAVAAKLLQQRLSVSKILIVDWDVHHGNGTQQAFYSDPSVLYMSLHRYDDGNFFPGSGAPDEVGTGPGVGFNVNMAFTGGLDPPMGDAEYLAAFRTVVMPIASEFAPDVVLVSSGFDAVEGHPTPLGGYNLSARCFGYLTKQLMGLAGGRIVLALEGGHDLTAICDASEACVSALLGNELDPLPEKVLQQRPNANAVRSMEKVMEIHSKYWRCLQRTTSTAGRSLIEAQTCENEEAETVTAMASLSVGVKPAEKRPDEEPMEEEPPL

[7] = biological target: HDAC5 (Homo sapiens (Human), UniProt Q9UQL6); assay: HDAC in vitro enzymatic assay (full HDAC panel); settings: read-out: IC50 HDAC5, top concentration 10 μM
Chain of HDAC5 (Q9UQL6 whole entry): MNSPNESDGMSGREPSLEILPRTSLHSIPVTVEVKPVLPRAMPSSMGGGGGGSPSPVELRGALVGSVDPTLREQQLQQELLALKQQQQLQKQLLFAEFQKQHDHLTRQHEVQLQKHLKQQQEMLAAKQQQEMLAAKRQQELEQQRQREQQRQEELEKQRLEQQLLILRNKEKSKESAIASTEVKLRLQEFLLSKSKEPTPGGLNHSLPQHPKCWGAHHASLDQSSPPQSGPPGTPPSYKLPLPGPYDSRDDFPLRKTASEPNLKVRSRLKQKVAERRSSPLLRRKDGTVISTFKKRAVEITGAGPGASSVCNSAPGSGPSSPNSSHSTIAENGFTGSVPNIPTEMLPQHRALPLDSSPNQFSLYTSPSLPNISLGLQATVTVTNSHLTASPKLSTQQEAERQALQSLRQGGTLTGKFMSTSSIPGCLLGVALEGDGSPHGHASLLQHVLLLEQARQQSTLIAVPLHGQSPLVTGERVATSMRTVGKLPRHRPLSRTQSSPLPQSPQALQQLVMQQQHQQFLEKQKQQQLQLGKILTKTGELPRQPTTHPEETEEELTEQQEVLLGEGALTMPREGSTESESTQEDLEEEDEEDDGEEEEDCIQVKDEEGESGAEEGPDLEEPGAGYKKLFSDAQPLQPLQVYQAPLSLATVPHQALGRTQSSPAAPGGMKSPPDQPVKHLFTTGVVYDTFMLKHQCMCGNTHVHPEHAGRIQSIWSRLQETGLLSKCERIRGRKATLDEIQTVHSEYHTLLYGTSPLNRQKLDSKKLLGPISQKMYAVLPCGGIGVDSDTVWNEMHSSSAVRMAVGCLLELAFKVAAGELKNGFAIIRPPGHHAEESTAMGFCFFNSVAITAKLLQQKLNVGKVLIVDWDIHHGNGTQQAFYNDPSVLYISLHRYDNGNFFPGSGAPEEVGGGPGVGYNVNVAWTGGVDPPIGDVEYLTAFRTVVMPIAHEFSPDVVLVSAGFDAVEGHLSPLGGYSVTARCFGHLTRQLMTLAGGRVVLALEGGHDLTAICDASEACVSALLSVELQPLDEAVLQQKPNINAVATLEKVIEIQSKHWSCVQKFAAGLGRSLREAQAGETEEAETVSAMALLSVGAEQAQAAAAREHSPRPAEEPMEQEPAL

[8] = biological target: HDAC7 (Homo sapiens (Human), UniProt Q8WUI4); assay: HDAC in vitro enzymatic assay (full HDAC panel); settings: read-out: IC50 HDAC7, top concentration 10 μM
[9] = biological target: HDAC9 (Homo sapiens (Human), UniProt Q9UKV0); assay: HDAC in vitro enzymatic assay (full HDAC panel); settings: read-out: IC50 HDAC9, top concentration 10 μM
Chain of HDAC9 (Q9UKV0 whole entry): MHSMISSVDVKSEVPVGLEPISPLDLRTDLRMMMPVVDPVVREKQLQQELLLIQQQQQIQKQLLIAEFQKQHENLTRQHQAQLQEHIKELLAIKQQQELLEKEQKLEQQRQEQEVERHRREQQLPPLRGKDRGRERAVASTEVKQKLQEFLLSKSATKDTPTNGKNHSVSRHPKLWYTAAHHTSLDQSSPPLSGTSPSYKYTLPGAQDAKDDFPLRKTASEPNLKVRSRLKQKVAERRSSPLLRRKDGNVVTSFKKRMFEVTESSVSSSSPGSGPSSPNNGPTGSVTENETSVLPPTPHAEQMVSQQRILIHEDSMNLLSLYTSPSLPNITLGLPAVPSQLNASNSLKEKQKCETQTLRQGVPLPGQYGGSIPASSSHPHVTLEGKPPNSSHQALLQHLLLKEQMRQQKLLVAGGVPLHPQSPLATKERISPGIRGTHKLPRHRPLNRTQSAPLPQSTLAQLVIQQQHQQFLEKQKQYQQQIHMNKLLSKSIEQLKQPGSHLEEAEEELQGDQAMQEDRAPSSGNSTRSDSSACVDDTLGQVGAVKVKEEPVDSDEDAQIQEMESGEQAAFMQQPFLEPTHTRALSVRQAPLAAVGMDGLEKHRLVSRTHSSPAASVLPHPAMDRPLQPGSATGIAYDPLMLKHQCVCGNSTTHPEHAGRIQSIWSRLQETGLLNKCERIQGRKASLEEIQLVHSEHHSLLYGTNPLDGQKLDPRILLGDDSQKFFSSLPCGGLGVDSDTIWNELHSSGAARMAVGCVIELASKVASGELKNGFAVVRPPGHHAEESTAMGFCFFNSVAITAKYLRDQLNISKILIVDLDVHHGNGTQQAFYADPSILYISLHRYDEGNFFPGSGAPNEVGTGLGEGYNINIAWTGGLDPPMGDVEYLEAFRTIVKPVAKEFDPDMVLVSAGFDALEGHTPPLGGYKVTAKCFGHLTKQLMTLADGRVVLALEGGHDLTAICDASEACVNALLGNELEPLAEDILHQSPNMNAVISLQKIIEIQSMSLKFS

[10] = biological target: HDAC10 (Homo sapiens (Human), UniProt Q969S8); assay: HDAC in vitro enzymatic assay (full HDAC panel); settings: read-out: IC50 HDAC10, top concentration 10 μM
Chain of HDAC10 (Q969S8 whole entry): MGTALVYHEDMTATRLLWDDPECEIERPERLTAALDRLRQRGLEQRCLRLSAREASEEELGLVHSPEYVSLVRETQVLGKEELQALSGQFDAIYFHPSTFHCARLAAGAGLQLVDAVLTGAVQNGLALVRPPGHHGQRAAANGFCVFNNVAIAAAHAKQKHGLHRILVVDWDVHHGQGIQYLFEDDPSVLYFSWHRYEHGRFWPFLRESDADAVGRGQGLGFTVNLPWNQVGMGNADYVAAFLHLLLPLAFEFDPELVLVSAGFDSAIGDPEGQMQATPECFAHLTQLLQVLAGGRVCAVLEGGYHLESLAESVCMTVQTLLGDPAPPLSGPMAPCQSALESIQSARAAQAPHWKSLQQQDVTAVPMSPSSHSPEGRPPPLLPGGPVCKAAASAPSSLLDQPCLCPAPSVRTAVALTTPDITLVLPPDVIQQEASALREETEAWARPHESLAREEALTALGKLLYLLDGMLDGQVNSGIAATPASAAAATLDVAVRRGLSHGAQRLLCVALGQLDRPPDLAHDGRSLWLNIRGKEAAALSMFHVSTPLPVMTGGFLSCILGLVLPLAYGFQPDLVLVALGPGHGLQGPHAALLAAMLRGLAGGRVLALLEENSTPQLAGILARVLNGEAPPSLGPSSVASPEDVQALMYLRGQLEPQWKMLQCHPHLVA

[11] = biological target: HDAC11 (Homo sapiens (Human), UniProt Q96DB2); assay: HDAC in vitro enzymatic assay (full HDAC panel); settings: read-out: IC50 HDAC11, top concentration 10 μM
Chain of HDAC11 (Q96DB2 whole entry): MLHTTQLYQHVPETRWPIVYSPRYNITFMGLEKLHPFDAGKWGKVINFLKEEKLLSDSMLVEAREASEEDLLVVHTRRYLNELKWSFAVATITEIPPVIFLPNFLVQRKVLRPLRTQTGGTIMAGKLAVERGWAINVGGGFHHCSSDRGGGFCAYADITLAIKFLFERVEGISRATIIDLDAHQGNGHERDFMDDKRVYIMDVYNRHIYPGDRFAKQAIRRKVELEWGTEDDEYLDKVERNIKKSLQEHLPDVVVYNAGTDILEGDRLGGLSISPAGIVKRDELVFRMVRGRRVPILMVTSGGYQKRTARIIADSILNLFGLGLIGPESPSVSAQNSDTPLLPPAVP

## O=C(NO)c1ccc2nc(-c3ccccc3C(F)(F)F)[nH]c2c1 [Example 18, N-hydroxy-2-[2-(trifluoromethyl)phenyl]-1H-benzimidazole-6-carboxamide]
[1]; full HDAC panel, top concentration 10 μM, read-out: IC50 HDAC6
  IC50: 77 nM
[1]; top concentration 2 μM, read-out: IC50 values for inhibition of HDAC6
  IC50: 77 nM
[2]
  IC50: > 10 µM
[3]
  IC50: > 10 µM
[4]
  IC50: 3000 nM
[5]
  IC50: > 10 µM
[6]
  IC50: > 10 µM
[7]
  IC50: > 10 µM
[8]
  IC50: 9.2 µM
[9]
  IC50: > 10 µM
[10]
  IC50: 8.6 µM
[11]
  IC50: > 10 µM
